# Test results reported in patent US20090156662A1, “Fat Absorption Inhibitor” (ITO EN, LTD., priority 2006, published 2009).
# Assays:
# [1] = Micellar cholesterol release: cholesterol remaining in bile acid micelles after incubation with test substance, filtration and GC; settings: for concentration of cholesterol in the micelles / concentration of micellar cholesterol relative to the case using theaflavin or theaflavin digallate: Embodiment 1; for concentration of cholesterol in the micelles: amount of addition raised up to 0.5 mM, incubated 37° C. 1 hour, FIG. 1; for concentration of micellar cholesterol relative to the case using theaflavin or theaflavin digallate: at an amount of 0.5 mM addition
# [2] = as above; settings: for micellar cholesterol concentration: Embodiment 4, same method as Embodiment 1, FIG. 5
# Protocol: Prepared were micelles composed of 0.5 mM of cholesterol, 6.6 mM of sodium taurocholate, 0.6 mM of phosphatidyl choline of egg yolk origin, 132 mM of sodium chloride (NaCl) and 15 mM of sodium phosphate (NaH2PO4.2H2O). The micelles were incubated for 24 hours at 37° C. for stabilizing the micelles. Then 0.1 mL solution of each theaflavin (manufactured by Nagara Science Co.) was added to each of 3 mL portions of the micelles in such a manner that their concentrations were to be respectively 0 μg, 200 μg and 800 μg to 1 mL of the micelles, which were then incubated at 37° C. for 1 hour. After that, each of solutions was filtered through a 220 nm filter (manufactured by Whatman Co.) to obtain a clear micelle solution. Cholesterol was extracted from each micelle solution obtained, and the concentration of cholesterol remained in the micelles was measured using a gas chromatograph (manufactured by Shimadzu Corp.) using 5α-cholestane as an internal standard.
# (§1) Prepared were micelles composed of 0.5 mM of cholesterol (manufactured by Sigma Co.), 6.6 mM of sodium taurocholate (manufactured by Nacalai Tesque Inc.), 0.6 mM of phosphatidyl choline from egg yolk (manufactured by Sigma Co.), 132 mM of sodium chloride (NaCl, manufactured by Nacalai Tesque Inc.) and 15 mM of sodium phosphate (NaH2PO4.2H2O, manufactured by Nacalai Tesque Inc.). The micelles were incubated at 37° C. for 24 hours for stabilization. Then 0.1 mL solution of the theaflavins formulation (manufactured by Funakoshi Corp.) was added to each of 3 mL portions of the micelles in such a manner that their concentrations were respectively 0 μg, 200 μg and 800 μg to 1 mL micelles, and the solutions were incubated at 37° C. for 1 hour (n=3). Each solution was filtered through a 220 nm filter to obtain a clear solution. Cholesterol was extracted from each micelle solution, and cholesterol remained in the micelle was measured with a gas chromatograph (manufactured by Shimadzu Corp.) using 5α-cholestane as an internal standard.
# Next, micelles for test were prepared (pH 6.8) at a composition of 0.5 mM of cholesterol, 6.6 mM of sodium taurocholate, 0.6 mM of egg yolk phosphatidyl choline, 132 mM of sodium chloride (NaCl) and sodium phosphate (NaH2PO4.2H2O), and the micelles were incubated at 37° C. for 24 hours for stabilization. […]
# [3] = Concentration of bile acid in the micelle solution by the enzymatic method (Eaton et al.); settings: Embodiment 3; FIG. 4
# Protocol: as §1
# Moreover, the concentration of bile acid was measured by the enzymatic method in accordance with the process of Eaton et al (Eaton, D. L. et al., Proc. Soc. Exp. Biol. Med. 1976, January; 151(1): 198-202).
Compound,concentration of cholesterol in the micelles [1],concentration of micellar cholesterol relative to the case using theaflavin or theaflavin digallate [1],micellar cholesterol concentration [2],further results
O=C(O[C@@H]1Cc2c(O)cc(O)cc2O[C@@H]1c1cc(O)c(O)c2c(=O)c(O)cc([C@H]3Oc4cc(O)cc(O)c4C[C@H]3O)cc12)c1cc(O)c(O)c(O)c1 [theaflavin-3′-monogallate],decreased in a manner dependent on the amount of addition,decreased about twice,–,–
O=C(O[C@@H]1Cc2c(O)cc(O)cc2O[C@@H]1c1ccc(O)c(O)c1)c1cc(O)c(O)c(O)c1 [epicatechin gallate],–,–,little effect,–
O=C(O[C@@H]1Cc2c(O)cc(O)cc2O[C@@H]1c1cc(O)c(O)c(O)c1)c1cc(O)c(O)c(O)c1 [epigallocatechin gallate],–,–,decreased,"concentration of cholesterol in the micelles ([2]; Embodiment 3, 0, 200 and 800 μg to 1 mL micelles, 37° C. 1 hour, n=3, FIG. 3): decreased; effect on the concentration of bile acid [3]: did not show any effect"
O=C(O[C@@H]1Cc2c(O)cc(O)cc2O[C@@H]1c1cc(=O)c(O)c2c(O)c(O)cc([C@H]3Oc4cc(O)cc(O)c4C[C@H]3O)c2c1)c1cc(O)c(O)c(O)c1 [theaflavin-3-monogallate],decreased in a manner dependent on the amount of addition,decreased about twice,–,–
O=c1c(O)cc([C@H]2Oc3cc(O)cc(O)c3C[C@H]2O)cc2c([C@H]3Oc4cc(O)cc(O)c4C[C@H]3O)cc(O)c(O)c12 [theaflavin],did not change,–,–,–
"O=C(O[C@@H]1Cc2c(O)cc(O)cc2O[C@@H]1c1cc(O)c(=O)c2c(O)c(O)cc([C@H]3Oc4cc(O)cc(O)c4C[C@H]3OC(=O)c3cc(O)c(O)c(O)c3)c2c1)c1cc(O)c(O)c(O)c1 [theaflavin-3,3′-digallate]",did not change,–,little effect,"micelle formation inhibitory effect ([1]; Embodiment 2, amount of addition increased up to 2 mmol/L, FIG. 2): excellent micelle formation inhibitory effect; cholesterol decreasing effect ([1]; Embodiment 2, amount of addition up to 1 mmol/L, FIG. 2): relatively gentle"
